# From ChEMBL document CHEMBL3797185, “Exploring the 2- and 5-positions of the pyrazolo[4,3-d]pyrimidin-7-amino scaffold to target human A1 and A2A adenosine receptors” (Bioorg Med Chem, 2016)
# Assays:
# [1] = biological target: T1, Adenosine receptor A2b (Homo sapiens) (UniProt P29275); experiment: Antagonist activity at human adenosine A2B receptor expressed in CHO cell membranes assessed as inhibition of NECA-stimulated cAMP level at 1 uM preincubated for 10 mins followed by NECA stimulation by scintillation counting method in presence of [3H]-cyclic AMP; format: functional
# T1 sequence (whole entry): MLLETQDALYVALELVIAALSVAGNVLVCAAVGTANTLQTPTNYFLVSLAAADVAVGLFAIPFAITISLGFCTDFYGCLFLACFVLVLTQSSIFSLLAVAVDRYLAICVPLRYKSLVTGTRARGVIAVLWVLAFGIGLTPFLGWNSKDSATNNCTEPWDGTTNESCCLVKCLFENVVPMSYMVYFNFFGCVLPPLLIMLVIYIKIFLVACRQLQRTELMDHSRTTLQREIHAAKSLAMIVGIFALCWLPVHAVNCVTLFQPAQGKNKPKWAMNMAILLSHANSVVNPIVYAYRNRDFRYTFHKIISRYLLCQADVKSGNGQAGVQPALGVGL
# [2] = biological target: T2, Adenosine receptor A2a (Homo sapiens, UniProt P29274); experiment: Displacement of [3H]-ZM241385 from human adenosine A2A receptor expressed in CHO cell membranes after 60 mins by scintillation counting method
# [3] = biological target: T3, Adenosine receptor A1 (Homo sapiens) (UniProt P30542); experiment: Displacement of [3H]-DPCPX from human adenosine A1 receptor expressed in CHO cell membranes at 1 uM after 120 mins by scintillation counting method relative to control
# T3 sequence (whole entry): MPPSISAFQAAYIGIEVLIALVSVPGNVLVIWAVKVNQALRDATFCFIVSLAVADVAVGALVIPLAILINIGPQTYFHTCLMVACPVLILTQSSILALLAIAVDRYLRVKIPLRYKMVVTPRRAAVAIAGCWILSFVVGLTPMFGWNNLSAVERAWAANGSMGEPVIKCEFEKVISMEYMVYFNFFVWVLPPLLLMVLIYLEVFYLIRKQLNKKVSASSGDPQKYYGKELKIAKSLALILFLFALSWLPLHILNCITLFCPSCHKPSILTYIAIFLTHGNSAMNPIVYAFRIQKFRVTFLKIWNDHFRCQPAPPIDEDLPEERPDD
# [4] = biological target: T4, Adenosine receptor A3 (Homo sapiens) (UniProt P0DMS8); experiment: Displacement of [125I]-AB-MECA from human adenosine A3 receptor expressed in CHO cell membranes at 1 uM after 60 mins by scintillation counting method relative to control
# T4 sequence (whole entry): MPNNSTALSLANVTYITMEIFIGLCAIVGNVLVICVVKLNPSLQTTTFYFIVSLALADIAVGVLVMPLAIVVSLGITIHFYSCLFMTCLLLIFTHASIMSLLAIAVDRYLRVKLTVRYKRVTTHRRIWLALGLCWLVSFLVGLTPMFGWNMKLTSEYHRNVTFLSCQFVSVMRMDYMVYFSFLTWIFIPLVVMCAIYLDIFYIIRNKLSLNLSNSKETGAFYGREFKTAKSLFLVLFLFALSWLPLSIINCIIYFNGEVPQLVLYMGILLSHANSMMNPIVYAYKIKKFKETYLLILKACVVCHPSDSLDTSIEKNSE
# [5] = biological target: T5, Adenosine receptor A2b (Homo sapiens, UniProt P29275); experiment: Antagonist activity at human adenosine A2B receptor expressed in CHO cell membranes assessed as inhibition of NECA-stimulated cAMP level preincubated for 10 mins followed by NECA stimulation by scintillation counting method in presence of [3H]-cyclic AMP; format: functional
# T5 sequence (P29275 whole entry): T1 sequence (whole entry)
# [6] = biological target: T6, Adenosine receptor A3 (Homo sapiens, UniProt P0DMS8); experiment: Displacement of [125I]-AB-MECA from human adenosine A3 receptor expressed in CHO cell membranes after 60 mins by scintillation counting method
# T6 sequence (P0DMS8 whole entry): T4 sequence (whole entry)
# [7] = organism: Homo sapiens; experiment: Selectivity ratio of Ki for human adenosine A1 receptor to Ki for human adenosine A2A receptor
# [8] = biological target: T7, Adenosine receptor A1 (Homo sapiens, UniProt P30542); experiment: Displacement of [3H]-DPCPX from human adenosine A1 receptor expressed in CHO cell membranes after 120 mins by scintillation counting method
# T7 sequence (P30542 whole entry): T3 sequence (whole entry)
# [9] = biological target: T2, Adenosine receptor A2a; experiment: Displacement of [3H]-ZM241385 from human adenosine A2A receptor expressed in CHO cell membranes at 1 uM after 60 mins by scintillation counting method relative to control
# [10] = biological target: T7, Adenosine receptor A1; experiment: Antagonist activity at human adenosine A1 receptor expressed in CHO cell membranes assessed as suppression of CCPA-mediated inhibition of cAMP level by scintillation counting method in presence of [3H]-cyclic AMP; format: functional
# [11] = biological target: T2, Adenosine receptor A2a; experiment: Antagonist activity at human adenosine A2A receptor expressed in CHO cell membranes assessed as inhibition of NECA-stimulated cAMP level preincubated for 10 mins followed by NECA stimulation by scintillation counting method in presence of [3H]-cyclic AMP; format: functional
# T2 sequence (P29274 whole entry): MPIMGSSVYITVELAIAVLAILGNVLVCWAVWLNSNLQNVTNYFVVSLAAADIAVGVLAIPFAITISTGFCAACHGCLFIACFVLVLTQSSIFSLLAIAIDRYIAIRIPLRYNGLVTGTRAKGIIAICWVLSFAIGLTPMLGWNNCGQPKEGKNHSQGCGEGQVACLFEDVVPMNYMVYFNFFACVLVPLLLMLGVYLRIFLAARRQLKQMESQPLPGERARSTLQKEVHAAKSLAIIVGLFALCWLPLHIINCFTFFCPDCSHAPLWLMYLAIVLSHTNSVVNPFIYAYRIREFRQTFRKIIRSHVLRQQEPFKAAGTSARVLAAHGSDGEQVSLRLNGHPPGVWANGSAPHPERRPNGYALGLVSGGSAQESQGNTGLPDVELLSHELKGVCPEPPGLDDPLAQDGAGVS
SMILES,inhibition [1] [%],Ki [2] [nM],inhibition [3] [%],inhibition [4] [%],IC50 [5] [nM],Ki [6] [nM],Ratio Ki [7],Ki [8] [nM],inhibition [9] [%],IC50 [10] [nM],IC50 [11] [nM]
Nc1nc(-c2ccco2)nc2cn(Cc3ccccc3)nc12,37,320,32,2,,,,,,,
Cc1ccc(-c2nc(N)c3nn(Cc4cccc(O)c4)cc3n2)o1,,14,,,633,225,3,65,,,
COc1ccccc1-n1cc2nc(-c3ccc(C)o3)nc(N)c2n1,1,518,1,,,297,,,,,
Cc1ccc(-c2nc(N)c3nn(Cc4ccccc4Cl)cc3n2)o1,,6.21,,,152,71,3,60,,,
Cn1cc2nc(Cc3ccccc3)nc(N)c2n1,20,,9,1,,,,,1,,
COc1cccc(Cn2cc3nc(-c4ccc(C)o4)nc(N)c3n2)c1,,5.26,,,293,88,22,120,,134,6.42
Nc1nc(-c2ccco2)nc2cn(-c3ccccc3)nc12,1,195,,39,,,,206,,,
COc1ccccc1Cn1cc2nc(-c3ccc(C)o3)nc(N)c2n1,30,3.62,,,,82,3,18,,21,4.35
Cc1ccc(-c2nc(N)c3nn(Cc4ccccc4)cc3n2)o1,20,9.23,,,,269,15,136,,152,10.9
Cc1nc(N)c2nn(Cc3ccccc3)cc2n1,1,,1,1,,,,,1,,
Nc1nc(-c2ccco2)nc2cn(CCc3ccccc3)nc12,3,,12,4,,,,,33,,
Nc1nc(Cc2ccccc2)nc2cn(Cc3ccccc3)nc12,1,,1,15,,,,,1,,
Cc1ccc(-c2nc(N)c3nn(Cc4ccccc4O)cc3n2)o1,,38,,,395,122,3,111,,,
Nc1nc(-c2ccco2)nc2cn(Cc3ccccc3O)nc12,,17,,,112,905,3,242,,,
Nc1nc(CCCc2ccccc2)nc2cn(-c3ccccc3F)nc12,1,,25,,,163,,,43,,
Cc1nc(N)c2nn(-c3ccccc3F)cc2n1,8,,,8,,,,410,23,,

SMILES,inhibition [1] [%],Ki [2] [nM],inhibition [3] [%],inhibition [4] [%],IC50 [5] [nM],Ki [6] [nM],Ratio Ki [7],Ki [8] [nM],inhibition [9] [%],IC50 [10] [nM],IC50 [11] [nM]
COc1ccccc1-n1cc2nc(CCCc3ccccc3)nc(N)c2n1,21,647,,6,,,,49,,,
Cc1ccc(-c2nc(N)c3nn(-c4ccccc4O)cc3n2)o1,1,147,1,,,375,,,,,
Nc1nc(CCCc2ccccc2)nc2cn(-c3ccccc3O)nc12,5,240,,5,,,,17,,,
COc1ccccc1-n1cc2nc(-c3cccs3)nc(N)c2n1,1,,24,,,150,,,27,,
Nc1nc(-c2ccco2)nc2cn(-c3ccccc3O)nc12,42,89,,36,,,,372,,,
COc1ccccc1-n1cc2nc(-c3ccco3)nc(N)c2n1,12,362,31,37,,,,,,,
COc1ccccc1Cn1cc2nc(-c3ccco3)nc(N)c2n1,,5.37,,,512,196,3,98,,106,6.21
Nc1nc(Cc2ccccc2)nc2cn(-c3ccccc3O)nc12,1,,,19,,,,52,21,,
Nc1nc(-c2cccs2)nc2cn(-c3ccccc3O)nc12,28,412,,,,209,,159,,,
Cc1ccc(-c2nc(N)c3nn(-c4ccccc4)cc3n2)o1,32,99,,,,147,,42,,,
Cc1ccc(-c2nc(N)c3nn(Cc4ccccc4F)cc3n2)o1,,57,,,354,498,3,309,,,
COc1ccccc1-n1cc2nc(Cc3ccccc3)nc(N)c2n1,1,,,,,405,,103,34,,
Cc1ccc(-c2nc(N)c3nn(Cc4cccc(F)c4)cc3n2)o1,,51,,,421,427,3,252,,,
Cn1cc2nc(CCCc3ccccc3)nc(N)c2n1,2,,36,30,,,,,1,,
Cc1nc(N)c2nn(CCc3ccccc3)cc2n1,3,,10,3,,,,,12,,
